The results in this text go back to US20230278972A1, “SUBSTITUTED HALOALKYL SULFONANILIDE HERBICIDES” (FMC Corporation, priority 2020, published 2023).

What all share (assay type): in vivo
The test system of experiment [1] is Oat, Wild (wild oat, Avena fatua). Nature of the experiment: Test A1 preemergence, Oat, Wild. Put shortly:
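Test compounds were formulated in a non-phytotoxic solvent mixture containing a surfactant. For preemergence, seeds sown in a loam soil–sand blend received a directed soil spray. For postemergence, potted plants in the same soil, 2 to 10 cm tall at the one- to two-leaf stage, were sprayed.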

The subject of experiment [2] is blackgrass (Alopecurus myosuroides). Nature of the experiment: Test A1 postemergence, blackgrass. Conditions: 0 to 100 scale (0 no effect, 100 complete control); for Plant response rating, Blackgrass: Postemergence; for Blackgrass plant response rating: postemergence. Put shortly:
(§1)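 Pre: seeds in loam/sand blend, directed soil spray. Post: potted plants, same soil, 2–10 cm, 1–2 leaf stage. Chemicals in non-phytotoxic solvent + surfactant for both.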

Experiment [3] has as its system Foxtail, Giant (giant foxtail, Setaria faberi). Nature of the experiment: Test A1 postemergence, Foxtail, Giant. Conditions: for Foxtail, Giant plant response rating: 31 g ai/ha, postemergence; for Plant response rating, Foxtail, Giant: Postemergence, 125 g ai/ha. In short, it runs like this:
as §1

For experiment [4], the system named is Ryegrass, Italian (Italian ryegrass, Lolium multiflorum). Nature of the experiment: Test A1 postemergence, Ryegrass, Italian. As to conditions: for Ryegrass, Italian plant response rating: 31 g ai/ha, postemergence; for Plant response rating, Ryegrass, Italian: Postemergence, 125 g ai/ha. In short, it runs like this: as §1
The mark [5] stands for this setting: 31 g ai/ha, 0 to 100 scale (0 no effect, 100 complete control).
The mark [6] stands for this setting: 125 g ai/ha, 0 to 100 scale, 0 no effect, 100 complete control.
Setting [7] is: 0 to 100 scale (0 no effect, 100 complete control).
[8] abbreviates: 0 to 100 scale (0 no effect, 100 complete control), 10 days.

Take `Cc1cc(C)c(C2=NOC3OCCCC23)cc1NS(=O)(=O)C(F)(F)F` (stereo not drawn) [Compound 372]: the “Plant response rating, Oat, Wild” value in experiment [1] (setting [5]) was found to be 0; in experiment [1] (setting [6]), 20. For the same compound, the “Plant response rating, Blackgrass” value in experiment [2] (31 g ai/ha, 10 days) turned out to be 0; in experiment [2] (125 g ai/ha), 30. Further, the “Foxtail, Giant plant response rating” value in experiment [3] (setting [7]) is listed as 0. Moreover, in experiment [3] (0 to 100 scale), the “Plant response rating, Foxtail, Giant” value was found to be 40. In experiment [4] (setting [7]), the “Ryegrass, Italian plant response rating” value turned out to be 0. Moreover, the “Plant response rating, Ryegrass, Italian” value in experiment [4] (0 to 100 scale) stood at 50.
On to `CCC1CC(c2cc(NS(=O)(=O)C(F)(F)F)c(C)cc2C)=NO1` (stereo not drawn) [Compound 375], for which the figures for the “Plant response rating, Oat, Wild” value in experiment [1] (setting [5]) and in experiment [1] (setting [6]) were 0 and 20, respectively. The “Plant response rating, Blackgrass” value in experiment [2] (31 g ai/ha, 10 days) was 0; in experiment [2] (125 g ai/ha), 0. For the same compound, in experiment [3] (setting [7]), the “Foxtail, Giant plant response rating” value worked out at 0. Besides, in experiment [3] (0 to 100 scale), the “Plant response rating, Foxtail, Giant” value is on record as 10. Moreover, in experiment [4] (setting [7]), the “Ryegrass, Italian plant response rating” value was 0. Moreover, in experiment [4] (0 to 100 scale), the “Plant response rating, Ryegrass, Italian” value is 40.
`CCC1CC(c2cc(N(COC(=O)C(C)(C)C)S(=O)(=O)C(F)(F)F)c(C)cc2C)=NO1` (stereo not drawn) [Compound 376]: the results for the “Plant response rating, Oat, Wild” value in experiment [1] (setting [5]) and in experiment [1] (setting [6]) were 0 and 10, respectively. Moreover, the “Plant response rating, Blackgrass” value was 0 in experiment [2] (31 g ai/ha, 10 days) and 50 in experiment [2] (125 g ai/ha). In addition, the “Foxtail, Giant plant response rating” value in experiment [3] (setting [7]) is on record as 0. Also, the “Plant response rating, Foxtail, Giant” value in experiment [3] (0 to 100 scale) was determined as 20. Moreover, the “Ryegrass, Italian plant response rating” value in experiment [4] (setting [7]) came to 0. For the same compound, the “Plant response rating, Ryegrass, Italian” value in experiment [4] (0 to 100 scale) is 0.
On to `Cc1ccc(C2=NOC3CCCC23)cc1NS(=O)(=O)C(F)(F)F` (stereo not drawn) [Compound 377], for which the “Plant response rating, Oat, Wild” value in experiment [1] (setting [5]) and in experiment [1] (setting [6]) was 0 each time. Moreover, the “Plant response rating, Blackgrass” value in experiment [2] (31 g ai/ha, 10 days) came out at 0; in experiment [2] (125 g ai/ha) it was 0. The “Foxtail, Giant plant response rating” value in experiment [3] (setting [7]) was 0. Further, the “Plant response rating, Foxtail, Giant” value in experiment [3] (0 to 100 scale) was found to be 0. The “Ryegrass, Italian plant response rating” value in experiment [4] (setting [7]) was determined as 0. Further, the “Plant response rating, Ryegrass, Italian” value in experiment [4] (0 to 100 scale) is listed as 0.
`CCc1cc(C)c(N(COC(=O)C(C)(C)C)S(=O)(=O)C(F)(F)F)cc1C1=NOC2CCCC12` (stereo not drawn) [Compound 378]: the figures for the “Plant response rating, Oat, Wild” value in experiment [1] (setting [5]) and in experiment [1] (setting [6]) were 10 and 40, respectively. The “Plant response rating, Blackgrass” value in experiment [2] (31 g ai/ha, 10 days) is on record as 0; in experiment [2] (125 g ai/ha) it was 30. For the same compound, in experiment [3] (setting [7]), the “Foxtail, Giant plant response rating” value was found to be 0. For the same compound, the “Plant response rating, Foxtail, Giant” value in experiment [3] (0 to 100 scale) was 10. Further, the “Ryegrass, Italian plant response rating” value in experiment [4] (setting [7]) is 0. Moreover, the “Plant response rating, Ryegrass, Italian” value in experiment [4] (0 to 100 scale) came out at 0.
In the case of `CCOC(=O)N(c1cc(C2=NOC3CCCC23)c(CC)cc1C)S(=O)(=O)C(F)(F)F` (stereo not drawn) [Compound 379], the “Plant response rating, Oat, Wild” value in experiment [1] (setting [5]) worked out at 0; in experiment [1] (setting [6]), 20. Besides, the “Plant response rating, Blackgrass” value in experiment [2] (31 g ai/ha, 10 days) is 0; in experiment [2] (125 g ai/ha), 30. Besides, the “Foxtail, Giant plant response rating” value in experiment [3] (setting [7]) was 0. For the same compound, the “Plant response rating, Foxtail, Giant” value in experiment [3] (0 to 100 scale) was determined as 10. For the same compound, the “Ryegrass, Italian plant response rating” value in experiment [4] (setting [7]) amounted to 0. Besides, the “Plant response rating, Ryegrass, Italian” value in experiment [4] (0 to 100 scale) amounted to 0.
As for `Cc1c(NS(=O)(=O)C(F)(F)F)cc(C2=NOC3(CCCC3)C2)c(C)c1C` [Compound 380], the “Plant response rating, Oat, Wild” value in experiment [1] (setting [5]) is 20; in experiment [1] (setting [6]), 90. The “Blackgrass plant response rating” value in experiment [2] (31 g ai/ha) is on record as 20. In addition, in experiment [2] (125 g ai/ha, 10 days), the “Plant response rating, Blackgrass” value stood at 20. Besides, the “Foxtail, Giant plant response rating” value in experiment [3] (setting [7]) was found to be 10. The “Plant response rating, Foxtail, Giant” value in experiment [3] (setting [8]) stood at 80. The “Ryegrass, Italian plant response rating” value in experiment [4] (setting [7]) is 0. Moreover, in experiment [4] (setting [8]), the “Plant response rating, Ryegrass, Italian” value was 60.
Regarding `Cc1c(C2=NOC3(CCCC3)C2)cc(N(COC(=O)C(C)(C)C)S(=O)(=O)C(F)(F)F)c(C)c1C` [Compound 382], the “Plant response rating, Oat, Wild” value was determined as 20 in experiment [1] (setting [5]) and 40 in experiment [1] (setting [6]). Besides, the “Blackgrass plant response rating” value in experiment [2] (31 g ai/ha) came to 0. The “Plant response rating, Blackgrass” value in experiment [2] (125 g ai/ha, 10 days) was found to be 0. In addition, the “Foxtail, Giant plant response rating” value in experiment [3] (setting [7]) worked out at 0. Also, the “Plant response rating, Foxtail, Giant” value in experiment [3] (setting [8]) is on record as 50. The “Ryegrass, Italian plant response rating” value in experiment [4] (setting [7]) amounted to 0. Besides, the “Plant response rating, Ryegrass, Italian” value in experiment [4] (setting [8]) came to 0.
For the compound `Cc1cc(C)c(N2CC3(CCCCC3)CC2=O)cc1NS(=O)(=O)C(F)(F)F` [Compound 392], the “Plant response rating, Oat, Wild” value in experiment [1] (setting [5]) turned out to be 20; in experiment [1] (setting [6]), 60. In experiment [2] (31 g ai/ha), the “Blackgrass plant response rating” value came out at 0. Further, the “Plant response rating, Blackgrass” value in experiment [2] (125 g ai/ha, 10 days) is listed as 0. Besides, the “Foxtail, Giant plant response rating” value in experiment [3] (setting [7]) came out at 0. The “Plant response rating, Foxtail, Giant” value in experiment [3] (setting [8]) is on record as 0. Moreover, the “Ryegrass, Italian plant response rating” value in experiment [4] (setting [7]) is 0. For the same compound, the “Plant response rating, Ryegrass, Italian” value in experiment [4] (setting [8]) is on record as 0.
For the compound `Cc1cc(Cl)c(NS(=O)(=O)C(F)(F)F)cc1N1CCC2(CCCCC2)C1=O` [Compound 393], the figures for the “Plant response rating, Oat, Wild” value in experiment [1] (setting [5]) and in experiment [1] (setting [6]) were 10 and 70, respectively. Further, the “Foxtail, Giant plant response rating” value in experiment [3] (setting [7]) is 0. Besides, the “Plant response rating, Foxtail, Giant” value in experiment [3] (setting [8]) was 40. In addition, in experiment [4] (setting [7]), the “Ryegrass, Italian plant response rating” value stood at 30. For the same compound, the “Plant response rating, Ryegrass, Italian” value in experiment [4] (setting [8]) is listed as 50.
